Patent US5441563A, “Highly insoluble azole embossing inhibitor and the use thereof” (Armstrong World Industries, Inc., priority 1994, dated 1995)

Tests used:
[1] = Inhibitor activity (IA), depth of chemical embossing and degree of expansion ranked against BTA-P (Table II); set-up: key to Inhibitor Activity (IA): 1: Excellent; 2: Very Good; 3: Good; 4: Fair; 5: Poor; None; settings: 10% by weight inhibitor in ink; scale 1 to 5, BTA-P benchmark = 1; 7 mil plastisol, 185 °C, 1.9 min
Method: Table II sets forth a number of properties of the examples and comparative examples which were made and tested. Most of these compounds were prepared using the direct milling procedure and then evaluated for inhibitor activity, ghosting and embossing definition.
The inhibited inks (at 10% by weight inhibitor concentration) were printed on 7 mils of an expandable plastisol coated onto a glass mat which was saturated with a non-expandable plastisol. This was done on a flat-bed gravure proof press using a 100 line screen step-wedge gravure plate. The steps ranged from a deep shadow tone to a shallow highlight tone. The inks printed and dried without any tack.
The printed samples were coated with 10 mils of a clear plastisol wearlayer and heated for 1.9±0.1 minutes at an air temperature of 185°±2° C. in a Werner. Mathis oven to fuse and expand the foamable plastisol to about 14 mils (a 2:1 blow ratio). The thickness of the printed coated areas (i.e., restricted area) was measured in mils and compared to the thickness of the expanded unprinted surrounding areas. This difference was recorded as depth of chemical embossing and was used along with the degree of expansion in the inhibited area to access the inhibitor activity (IA).
The inhibitor activity of the BTA-P derivative was established as the benchmark and on a scale of 1 to 5 was given a rating of 1 (five on the scale being less than one mil of overall chemical embossing). This is a subjective ranking where the other compounds were evaluated for inhibitor activity by comparing them to BTA-P, both numerically and visually.

physchem = assay type: physicochemical
[2] = Stability of dispersions and ink compositions containing the inhibitor; assay type: physicochemical
Method: A cationic dispersion of TTA-P was prepared using a quaternary ammonium salt, stearyl dimethylbenzylammonium chloride, (Maquat SC-18, Mason Chemical Co.), as the stabilizer. The product was first diminutized by grinding the coarse powder (TTA-P) for approximately 18 hours in a standard ball mill using a combination of 12 mm diameter spherical and 6 mm diameter×6 mm high cylindrical balls. Approximately 1/2 of the 1 L ball mill volume was filled for the grinding operation. […] The dispersion was then prepared by adding 2.35 parts Maquat SC-18 (85% active) to 37.65 parts deionized water and stirring until dissolved. A total of 40 parts of TTA-P was then added to the surfactant solution in 5 part increments with stirring, followed by agitation with a sonic dismembrator, (Fisher Model 3000). The sonic probe was inserted directly into the suspension and run on the highest setting for 1-2 minutes. A creamy dispersion resulted initially, with viscosity increasing with increasing solids content. The final suspension was a uniform paste with a concentration of 50% by weight solids.
A blue aqueous inhibitor ink was prepared by adding 0.20 parts of CIB 103 Blue Pigment (sold by Penn Color, Inc.) to 20 parts of CIE 94 Extender (sold by Penn Color, Inc.) and stirring to uniform coloration. Then 6.06 parts of the 50% suspension of TTA-P (prepared in Example 4) was then added to the ink mixture and stirred to uniform coloration.
An anionic dispersion paste of TTA-P was prepared with a polyoxyethylene branched nonylphenyl ether phosphate surfactant, (Rhodofac PE-50, Rhone Poulenc). Diminutization of the compound was performed by milling as described in Example 4. Dispersion of the compound was accomplished using the sonic dismembrator, also described in Example 4. Materials were combined in the proportion: 40 parts of deionized water, 2.06 parts of the surfactant and 40 parts of TTA-P. Materials were added in the listed sequence.
The anionic dispersion of TTA-P (Example 6) was added to an anionic ink formulation of Sicpa Corp. The resultant mixture consisted of 20 parts Sicpa Extender 694556, 0.20 parts Sicpa black ink 674554 and 6.06 parts of the 48.7% dispersion of the compound (Example 6).
A portion of BTA-P, the benzotriazole-piperazine derivative, was stably dispersed with the cationic surfactant stearyldimethylbenzylammonium chloride, (Maquat SC-18, Mason Chemical Co.). The compound was milled and dispersed as in Example 4. The materials were combined in the proportion: 20 parts deionized water, 1.18 parts Maquat SC-18, (85% active), and 33.16 parts BTA-P. The materials were added in the listed sequence. […] The paste was 61% by weight of BTA-P.
The cationic dispersion of BTA-P (Example 8) was added to a cationic ink formulation of Penn Color. The mixture consisted of 20 parts Penn Color Extender CIE 94, 0.20 parts Penn Color CIB 103 blue ink and 4.96 parts of the 61% dispersion of BTA-P (Example 8).
A portion of HTTA-P, the hydrogenated tolyltriazolepiperazine derivative, was colloidally dispersed with the cationic surfactant stearyldimethylbenzylammonium chloride, (Maquat SC-18, Mason Chemical Co.). The milling and dispersing procedures of Example 4 were followed. The materials were combined in the proportion: 21 parts deionized water, 1 part Maquat SC-18, (85% active), and 37 parts HTTA-P. The materials were added in the listed sequence. […] The paste was 62.7% by weight of HTTA-P.
The cationic dispersion of HTTA-P (Example 10) was added to a cationic ink formulation of Penn Color. The mixture consisted of 20 parts Extender CIE 94, 0.20 parts CIB 103 blue ink and 4.83 parts of the 62.7% dispersion of HTTA-P (Example 10).
Hitherto, dispersion of these new inhibitors directly into the ink formulation was not considered. The instability problems of other triazole inhibitors seemed to indicate that a surfactant in addition to that found in the ink and extender was required. […]

[3] = as above; assay type: physicochemical; settings: sonicated

N,N'-bis(tolyltriazol-1-yl methyl) piperazine [TTA-P]
Inhibitor Activity (IA) [1]: 1
Solubility in iPrOH (physchem; 1440 min): 0.204 % BY WT
Solubility in H2O (physchem; water, 24 h): 0.031 % BY WT
Stability of ink mixture ([2]; anionic aqueous ink with anionic dispersion): colloidally stable
Stability of dispersion ([2]; anionic dispersion paste, Rhodofac PE-50): stable, homogenous paste
Stability of ink mixture ([2]; cationic aqueous ink with cationic dispersion): colloidally stable and disperse
Stability of ink mixture ([3]; direct addition to anionic ink): homogenous and stable mixture
Stability of ink mixture ([3]; direct addition to cationic ink): homogenous and stable mixture
